Reference: patent US10106601B2, “Inhibition of PLGF to treat philadelphia chromosome positive leukemia” (VIB VZW, priority 2008, dated 2018)
“Also recorded” adds a separate entry of the source.

B1: PIGF: murine recombinant placental growth factor from R&D Systems, used at 50 ng/ml (protein, UniProt P49764 19-158, looked up)
Placenta growth factor: VHSQGALSAGNNSTEVEVVPFNEVWGRSYCRPMEKLVYILDEYPDEVSHIFSPSCVLLSRCSGCCGDEGLHCVPIKTANITMQILKIPPNRDPHFYVEMTFSQDVLCECRPILETTKAERRKTKGKRKRSRNSQTEEPHP

Assays:
[1] = tested on: murine BMDSCs; assay: PIGF secretion by stromal cells incubated with imatinib; format: cell-based; settings: increasing concentrations of imatinib
Description: For isolation of BMDSCs, the bone marrow from femurs and tibias was flushed, the erythrocytes eliminated with lysis buffer (150 mM NH4Cl, 0.1 mM EDTA, 10 mM KHCO3, pH 7.4) and subsequently the cells were cultured in DMEM medium supplemented with 15% FCS. After 24 hours, the non-adherent cell fraction was removed, and the adherent cells were further cultured and expanded for 3 weeks.
Concentrations of PIGF or VEGF were quantified in cell culture supernatants, peripheral blood plasma and bone marrow plasma using “Quantikine” mouse PIGF and mouse VEGF immunoassays (R&D Systems). Concentrations were expressed as pg/ml/10^5 cells or as pg/ml.

[2] = tested on: PIGF; assay: PIGF levels in PB of CML patients treated with Imatinib; format: in vivo, human
[3] = tested on: Bv-173 and KCL-22 cells; assay: Western Blots of ABL phosphorylation with and without PIGF; format: cell-based, human; settings: cells incubated with and without PIGF; data not shown
Description: In order to elucidate, whether PIGF induces changes in ABL phosphorylation of BCR/ABL^+ leukemia cells, we performed Western Blots of Bv-173 and KCL-22 cells that were incubated with and without PIGF.

[4] = tested on: BCR/ABL+ cell lines; assay: Induction of proliferation of leukemia cells by recombinant PIGF; format: cell-based, human and murine; settings: in vitro
Description: Proliferation of leukemia cells and BMDSCs was analyzed by using MTT assays or by manual counting with a hemocytometer. Murine recombinant PIGF and anti-VEGFR-1 were obtained from R&D Systems. Anti-PIGF and control IgG1 were produced by Thrombogenics and Biolnvent and characterized as described (Fischer et al., 2007). PIGF was used at a concentration of 50 ng/ml and the antibodies in 100-fold molar excess, unless stated otherwise. For co-culture experiments, 10^5 BMDSCs were co-cultured for 48 hours with 4×10^5 leukemia cells alone or in presence of the respective antibodies in serum-free medium. Subsequently, numbers of adherent BMDSCs and non-adherent leukemia cells were determined and supernatants were harvested for analyses of PIGF and VEGF protein.

Row | Molecule | PIGF secretion by BMDSCs [1] | PIGF levels in PB ([2]; patients with BCR/ABL/ABL ratio <1) | PIGF levels in PB ([2]; patients with complete molecular remission (CMR) vs healthy subjects) | phosphorylation of ABL [3] | induction of proliferation of leukemia cells by PIGF [4]
1 | Cc1ccc(NC(=O)c2ccc(CN3CCN(C)CC3)cc2)cc1Nc1nccc(-c2cccnc2)n1 [imatinib] | dose-dependent induction of PIGF | elevated to similar levels as in untreated, newly diagnosed CML patients | significantly higher | – | –
2 | B1 | – | – | – | did not modify phosphorylation of ABL | dose dependently induced proliferation; also recorded: dose-dependent induction of proliferation
